The values below come from patent JP2014001205A, “動物の寄生虫防除剤” (Nissan Chemical Corp, priority 2012, dated 2014).

The structures appear in SMILES notation.

For the first assay, the system named is American dog tick (Dermacentor variabilis) first nymphs [American dog tick(Dermacentor variabilis)第1若虫]. As to the kind of experiment: Efficacy test against American dog tick (Test Example 2), glass container film contact. As to conditions: 96 h, 10μg/cm2, 5 first nymphs (mixed sex), 25℃, 4 days, duplicate, read-out: efficacy (number with abnormal behaviour due to compound / number released × 100). The format is in vivo.
As for `CON=C(CSC)C(=O)N(C)c1cn(-c2cccnc2)nc1Cl` (single isomer, unassigned) [1−142], the pest or weed control at 10 µg/cm2 was at least 80%. In the case of `CCON=C(CSC)C(=O)N(CC)c1cn(-c2cccnc2)nc1Cl` (single isomer, unassigned) [1−157], the pest or weed control at 10 µg/cm2 is at least 80%. As to `CSCCC(=O)Nc1cnn(-c2cccnc2)c1` [1−006], the pest or weed control at 10 µg/cm2 was at least 80%. For the compound `CSCCC(=O)N(C)c1cn(-c2cccnc2)nc1C` [1−018, N−メチル−N−{3−メチル−1−(ピリジン−3−イル)−1H−ピラゾール−4−イル}−3−(メチルチオ)プロパンアミド], the pest or weed control at 10 µg/cm2 was at least 80%.

As to `Cc1nn(-c2cccnc2)cc1NC(=O)NCC(F)(F)F` [1−032], the pest or weed control at 10 µg/cm2 is at least 80%. `CCN(C(=O)CCSC)c1cn(-c2cccnc2)nc1Cl` [1−033]: the pest or weed control at 10 µg/cm2 was at least 80%. On the same count and under the same terms, then `CS(=O)(=O)C1CCCN(c2cnn(-c3cccnc3)c2)C1=O` (centres unmarked) [1−035], with at least 80%; and `CCN(C(=O)CCSC)c1cnn(-c2cccnc2)c1` [1−044], with at least 80%; and `CC(C)(C)OC(=O)Nc1cn(-c2cccnc2)nc1Cl` [1−046, tert−ブチル 3−クロロ−1−(ピリジン−3−イル)−1H−ピラゾール−4−イルカーバメート], with at least 80%. Regarding `CCN(C(=O)OC(C)(C)C)c1cn(-c2cccnc2)nc1Cl` [1−056, tert−ブチル 3−クロロ−1−(ピリジン−3−イル)−1H−ピラゾール−4−イル(エチル)カーバメート], the pest or weed control at 10 µg/cm2 is at least 80%. Take `CSCCC(=O)Nc1cn(-c2cccnc2)nc1Cl` [1−058]: the pest or weed control at 10 µg/cm2 was at least 80%. Turning to `CCN(C(=O)NCCSC)c1cn(-c2cccnc2)nc1C` [1−060], the pest or weed control at 10 µg/cm2 was at least 80%.

For `CCCN(C(=O)CCSC)c1cn(-c2cccnc2)nc1Cl` [1−063], the pest or weed control at 10 µg/cm2 is at least 80%. With `C=CCN(C(=O)CCSC)c1cn(-c2cccnc2)nc1Cl` [1−064], the pest or weed control at 10 µg/cm2 was at least 80%. As to `CCCN(C(=O)C(C)CSC)c1cn(-c2cccnc2)nc1Cl` (centres unmarked) [1−066], the pest or weed control at 10 µg/cm2 is at least 80%. As for `CCN(C(=O)COCSC)c1cn(-c2cccnc2)nc1Cl` [1−067], the pest or weed control at 10 µg/cm2 was at least 80%. On the same count and under the same terms, then `CCC(CSC)C(=O)N(C)c1cn(-c2cccnc2)nc1Cl` (centres unmarked) [1−084], with at least 80%; and `COCN(C(=O)C(C)CSC)c1cn(-c2cccnc2)nc1Cl` (centres unmarked) [1−086], with at least 80%. For `Cc1nn(-c2cccnc2)cc1N(C)C(N)=O` [1−094], the pest or weed control at 10 µg/cm2 is at least 80%. Take `CCSCC(=O)N(CC)c1cn(-c2cccnc2)nc1Cl` [1−107]: the pest or weed control at 10 µg/cm2 is at least 80%. As for `CCN(C(=O)CC[S+](C)[O-])c1cn(-c2cccnc2)nc1C` (centres unmarked) [1−110], the pest or weed control at 10 µg/cm2 was at least 80%. On to `CCN(C(=O)CCSC(C)C)c1cn(-c2cccnc2)nc1Cl` [1−123], for which the pest or weed control at 10 µg/cm2 was at least 80%.

For the compound `CCN(C(=O)CCSCC(F)(F)F)c1cn(-c2cccnc2)nc1Cl` [1−124], the pest or weed control at 10 µg/cm2 is at least 80%. For the compound `C=C1CCN(c2cn(-c3cccnc3)nc2Cl)C1=O` [1−133, 1−{3−クロロ−1−(ピリジン−3−イル)−1H−ピラゾール−4−イル}−3−メチレンピロリジン−2−オン], the pest or weed control at 10 µg/cm2 was at least 80%. `CSCC(C)(C)C(=O)N(C)c1cn(-c2cccnc2)nc1Cl` [1−134, N−{3−クロロ−1−(ピリジン−3−イル)−1H−ピラゾール−4−イル}−N,2,2−トリメチル−3−(メチルチオ)プロパンアミド]: the pest or weed control at 10 µg/cm2 was at least 80%. With `CC(=O)N(C)c1cn(-c2cccnc2)nc1Cl` [1−148], the pest or weed control at 10 µg/cm2 is at least 80%. Take `CCN(C(C)=O)c1cn(-c2cccnc2)nc1Cl` [1−149]: the pest or weed control at 10 µg/cm2 was at least 80%.

`CCCC(=O)N(CC)c1cn(-c2cccnc2)nc1Cl` [1−151]: the pest or weed control at 10 µg/cm2 was at least 80%.

As to `C=CC(=O)N(CC)c1cn(-c2cccnc2)nc1Cl` [1−152, N−{3−クロロ−1−(ピリジン−3−イル)−1H−ピラゾール−4−イル}−N−エチルアクリルアミド], the pest or weed control at 10 µg/cm2 is at least 80%. Same read-out and setting: then `CCN(C(=O)CC[S+]([O-])CC(F)(F)F)c1cn(-c2cccnc2)nc1Cl` (centres unmarked) [1−154], with at least 80%; and `CCN(C(=O)CCS(=O)(=O)CC(F)(F)F)c1cn(-c2cccnc2)nc1Cl` [1−155], with at least 80%. `O=C(NCC(F)(F)F)Nc1cn(-c2cccnc2)nc1Cl` [1−158]: the pest or weed control at 10 µg/cm2 was at least 80%.

Turning to `CCN(C(=O)C(CSC)=NOC(C)C)c1cn(-c2cccnc2)nc1Cl` [1−172], the pest or weed control at 10 µg/cm2 is at least 80%. Same read-out and setting: next, `CCCON=C(CSC)C(=O)N(CC)c1cn(-c2cccnc2)nc1Cl` [1−173]: at least 80%; `CCCCON=C(CSC)C(=O)N(CC)c1cn(-c2cccnc2)nc1Cl` [1−184]: at least 80%.

Consider `CSCCN(C(C)=O)c1cn(-c2cccnc2)nc1Cl` [1−186], for which the pest or weed control at 10 µg/cm2 is at least 80%. For the compound `CC(C)(C)OC(=O)Nc1cn(-c2cccnc2)nc1Br` [1−188, tert−ブチル 3−ブロモ−1−(ピリジン−3−イル)−1H−ピラゾール−4−イルカーバメート], the pest or weed control at 10 µg/cm2 was at least 80%. Consider `CCN(C(=O)C(C[S+](C)[O-])OC)c1cn(-c2cccnc2)nc1Cl` (centres unmarked) [1−199], for which the pest or weed control at 10 µg/cm2 was at least 80%. On to `CCON=C(C[S+](C)[O-])C(=O)N(CC)c1cn(-c2cccnc2)nc1Cl` (centres unmarked) [1−208], for which the pest or weed control at 10 µg/cm2 is at least 80%. On to `CCN(C(=O)C(CSC)c1ccccc1)c1cn(-c2cccnc2)nc1Cl` (centres unmarked) [1−216], for which the pest or weed control at 10 µg/cm2 is at least 80%. The same measure, in the same setting: then `C=CCON=C(CSC)C(=O)N(CC)c1cn(-c2cccnc2)nc1Cl` [1−222], with at least 80%; and `CCN(C(=O)C(C)SC(C)C)c1cn(-c2cccnc2)nc1Cl` (centres unmarked) [1−248], with at least 80%. With `CON=C(COCC(F)(F)F)C(=O)N(C)c1cn(-c2cccnc2)nc1Cl` [1−273], the pest or weed control at 10 µg/cm2 was at least 80%. On to `CCN(C(=O)CC(=NOC)C(F)(F)F)c1cn(-c2cccnc2)nc1Cl` [1−303], for which the pest or weed control at 10 µg/cm2 is at least 80%.

Take `CC(C)(C)OC(=O)N(CC(F)(F)F)c1cn(-c2cccnc2)nc1Cl` [1−324]: the pest or weed control at 10 µg/cm2 is at least 80%. Regarding `CC(C)(C)OC(=O)N(CC1CC1)c1cn(-c2cccnc2)nc1Cl` [1−343], the pest or weed control at 10 µg/cm2 is at least 80%. `CCSC(C)C(=NOC)Nc1cn(-c2cccnc2)nc1Cl` (centres unmarked) [1−356, N−{3−クロロ−1−(ピリジン−3−イル)−1H−ピラゾール−4−イル}−2−(エチルチオ)−N’−メトキシプロパンイミダミド]: the pest or weed control at 10 µg/cm2 was at least 80%.

With `CCN(C(=O)CC(CSC)=NOC)c1cn(-c2cccnc2)nc1Cl` [1−367], the pest or weed control at 10 µg/cm2 was at least 80%. Consider `CCN(C(=O)OC(C)(C)C)c1cn(-c2cccnc2)nc1OC` [1−395], for which the pest or weed control at 10 µg/cm2 was at least 80%. For `CCN(C(=O)CNC(=O)C(F)(F)F)c1cn(-c2cccnc2)nc1Cl` [1−409], the pest or weed control at 10 µg/cm2 is at least 80%.

For the compound `CCN(C(=O)CCC(F)=C(F)F)c1cn(-c2cccnc2)nc1Cl` [1−418], the pest or weed control at 10 µg/cm2 was at least 80%. In the case of `CCN(C(=O)COC(C)(C)C)c1cn(-c2cccnc2)nc1Cl` [1−439], the pest or weed control at 10 µg/cm2 was at least 80%. In the case of `CCSC(C)C(=S)Nc1cnn(-c2cccnc2)c1` (centres unmarked) [1−480], the pest or weed control at 10 µg/cm2 is at least 80%. `CCN(C(=O)C(C)CS(C)(=O)=O)c1cn(-c2cccnc2)nc1C` (centres unmarked) [1−490]: the pest or weed control at 10 µg/cm2 was at least 80%.

As for `CSCC(=O)N(C)C(C)=Nc1cn(-c2cccnc2)nc1C` [3−004, N−メチル−N−[1−{3−メチル−1−(ピリジン−3−イル)−1H−ピラゾール−4−イルイミノ}エチル]−2−(メチルチオ)アセタミド], the pest or weed control at 10 µg/cm2 is at least 80%.

The same assay, now with this note: 96 h, read-out: efficacy (number with abnormal behaviour due to compound / number released × 100).
On to `CCN(C(=O)C(CSC)=NOCC[Si](C)(C)C)c1cn(-c2cccnc2)nc1Cl` [1−268], for which the pest or weed control at 10 µg/cm2 is at least 80%.

In the next assay the test system is cat flea (Ctenocephalides felis) adults [ネコノミ(Ctenocephalides felis)成虫]. Kind of assay: Efficacy test against cat flea (Test Example 1), glass container film contact. As to conditions: 96 h, 10μg/cm2, 5 adults (mixed sex), 25℃, 4 days, duplicate, read-out: efficacy (number of insects with abnormal behaviour due to compound / number released × 100). Type of assay: in vivo.
In the case of `CCN(C(=O)[C@H](C)CSC)c1cn(-c2cccnc2)nc1Cl` [1−048(S)−(−), (S)−(−)−N−{3−クロロ−1−(ピリジン−3−イル)−1H−ピラゾール−4−イル}−N−エチル−2−メチル−3−(メチルチオ)プロパンアミド], the pest or weed control at 10 µg/cm2 is at least 80%.

For `C[C@H](CS(C)(=O)=O)C(=O)N(C)c1cn(-c2cccnc2)nc1Cl` [1−054(S)−(+)], the pest or weed control at 10 µg/cm2 was at least 80%. Consider `CSCC(C)C(=O)Nc1cn(-c2cccnc2)nc1Cl` (centres unmarked) [1−074], for which the pest or weed control at 10 µg/cm2 is at least 80%. The same measure, in the same setting: then `CCOCC(=O)N(CC)c1cn(-c2cccnc2)nc1Cl` [1−220], with at least 80%; and `CCN(C(=O)C(C)SC(C)=O)c1cn(-c2cccnc2)nc1Cl` (centres unmarked) [1−245], with at least 80%.

For `CCNC(=O)NCC(=O)N(CC)c1cn(-c2cccnc2)nc1Cl` [1−375], the pest or weed control at 10 µg/cm2 was at least 80%. Still for that read-out and setting: next, `CCN(C(=O)CSCC(OC)OC)c1cn(-c2cccnc2)nc1Cl` [1−434]: at least 80%; `CCN(C(=O)C(=O)Nc1ccccc1)c1cn(-c2cccnc2)nc1Cl` [1−464]: at least 80%.

For the compound `CCc1nn(-c2cccnc2)cc1N(CC)C(=O)C(C)CSC` (centres unmarked) [1−484], the pest or weed control at 10 µg/cm2 is at least 80%.

Consider `CC(CS(C)(=O)=O)C(=O)Nc1cn(-c2cccnc2)nc1Cl` (centres unmarked) [1−494], for which the pest or weed control at 10 µg/cm2 is at least 80%. Regarding `CCN(C(=O)NCC(F)(F)F)c1cn(-c2cccnc2)nc1Cl` [1−501], the pest or weed control at 10 µg/cm2 is at least 80%. On to `CCN(C(=O)CCCSC)c1cn(-c2cccnc2)nc1Cl` [1−520], for which the pest or weed control at 10 µg/cm2 is at least 80%. Take `CC(C)(C)OC(=O)N(CC#N)c1cn(-c2cccnc2)nc1Cl` [1−522]: the pest or weed control at 10 µg/cm2 was at least 80%. For the compound `CCN(C(=O)C(C)CSC)c1cn(-c2cccnc2)nc1C(F)(F)F` (centres unmarked) [1−523], the pest or weed control at 10 µg/cm2 was at least 80%. Take `CCN(C(=O)CCC[S+](C)[O-])c1cn(-c2cccnc2)nc1Cl` (centres unmarked) [1−527]: the pest or weed control at 10 µg/cm2 is at least 80%.

Turning to `CCN(C(=O)CCCS(C)(=O)=O)c1cn(-c2cccnc2)nc1Cl` [1−528], the pest or weed control at 10 µg/cm2 was at least 80%. As to `CCNC(=S)Nc1cn(-c2cccnc2)nc1C` [1−549], the pest or weed control at 10 µg/cm2 is at least 80%. The same measure, in the same setting: next, `CCNC(=O)N(C)c1cn(-c2cccnc2)nc1Cl` [1−551]: at least 80%.
